Assay results as given in patent US20220175768A1, “FGFR TYROSINE KINASE INHIBITORS FOR THE TREATMENT OF UROTHELIAL CARCINOMA” (Janssen Pharmaceutica NV, priority 2019, published 2022).
Where two headings read alike, the source gives them in different places.

Columns and labels:
[1] = tested on: metastatic or surgically unresectable urothelial cancer harboring select FGFR genetic alterations; details: for ORR, BIRC assessment / ORR, investigator assessment: chemotherapy-refractory patients in Regimen 3
Description: The study comprises a Screening Phase (molecular screening at any time prior to first dose and study screening within 30 days of first dose), a treatment phase, and a post-treatment follow-up phase. The treatment phase comprises the period from first dose until the end-of-treatment visit. The follow-up phase extends until the subject has died, withdraws consent, is lost to follow-up, or the end of study, whichever comes first.
Included patients were adults with measurable urothelial cancer per Response Evaluation Criteria in Solid Tumors version 1.1.
Patients were required to have at least 1 FGFR2/FGFR3 mutation or fusion per central lab testing of RNA from formalin-fixed, paraffin-embedded tumor samples, using a custom reverse transcriptase polymerase chain reaction assay.
The primary end point of this study is Objective Response Rate to the selected regimen (Regimen 3).
Secondary end points include progression-free survival (PFS), response duration, Overall Survival, safety, response rate in biomarker-specific subgroups, and pharmacokinetics.
The study was designed to enroll 180 patients with specified FGFR alterations. Of these, ≥88 were required in the selected regimen. […] Responses were assessed by investigators and an independent radiological review committee. Progression-free survival and overall survival were estimated using Kaplan-Meier product limit method. Data from patients who were progression free and alive or with unknown status were censored at last tumor assessment. Efficacy end points were analysed at primary analysis cut-off.

serum phosphate = assay: Pharmacodynamics: serum phosphate level; format: in vivo, human; details: consequence of FGFR inhibition
Description: To manage phosphate elevation, phosphate binders were permitted. Avoid concomitant use with agents that can alter serum phosphate levels before the initial dose increase period based on serum phosphate levels.

[2] = Effect of food (high-fat and high-calorie meal) on pharmacokinetics in healthy subjects; format: in vivo, human
in vitro = in vitro ADME; details: human
[3] = Pharmacokinetics in specific populations; format: in vivo, human; details: age 21-88 years, sex, race, body weight 36-132 kg, mild or moderate renal impairment, mild hepatic impairment
[4] = human, in vivo
clinical = details: human, in vivo
[5] = 187 patients with cancer; large effect i.e. >20 ms
[6] = Chemotherapy-refractory patients in Regimen 3 (N = 87)
[7] = Regimen 1, 10 mg intermittent (n = 33)
[8] = Regimen 2, 6 mg continuous (n = 78)
[9] = Regimen 3, of 97 patients with ≥1 postbaseline disease evaluation

## COc1cc(OC)cc(N(CCNC(C)C)c2ccc3ncc(-c4cnn(C)c4)nc3c2)c1 [erdafitinib, N-(3,5-dimethoxy-phenyl)-N′-(1-methylethyl)-N-[3-(1-methyl-1H-pyrazol-4-yl)quinoxalin-6-yl]ethane-1,2-diamine]
[1]; 8 mg non-uptitrated continuous dose regimen, Regimen 3
  Objective response rate per investigator assessment: (34.5) %
[1]; 8 mg uptitrated to 9 mg continuous dose regimen, Regimen 3
  Objective response rate per investigator assessment: (48.8) %
[1]; Bone metastases, Regimen 1, 10 mg intermittent
  Objective response rate per investigator assessment: (17) %
[1]; Bone metastases, Regimen 2, 6 mg continuous
  Objective response rate per investigator assessment: (40) %
[1]; Bone metastases, Regimen 3, 8 mg continuous
  Objective response rate per investigator assessment: (31.8) %
[1]; Chemotherapy-naïve, Regimen 1, 10 mg intermittent
  Objective response rate per investigator assessment: (25) %
[1]; Chemotherapy-naïve, Regimen 2, 6 mg continuous
  Objective response rate per investigator assessment: (0) %
[1]; Chemotherapy-naïve, Regimen 3, 8 mg continuous
  Objective response rate per investigator assessment: (41.7) %
[1]; [6]
  Complete response (CR), investigator assessment: 3.4%
  Partial response (PR), investigator assessment: 36.8%
[1]; FGFR2 Fusion (N = 6)
  ORR, BIRC assessment: 0%
[1]; FGFR3 Fusion (N = 18)
  ORR, BIRC assessment: 11.1%
[1]; FGFR3 Point Mutation (N = 64)
  ORR, BIRC assessment: 40.6%
  ORR, investigator assessment: 48.4%
[1]; FGFR Fusion (N = 23)
  ORR, investigator assessment: 17.4%
[1]; Liver metastases, Regimen 1, 10 mg intermittent
  Objective response rate per investigator assessment: (27) %
[1]; Liver metastases, Regimen 2, 6 mg continuous
  Objective response rate per investigator assessment: (24) %
[1]; Liver metastases, Regimen 3, 8 mg continuous
  Objective response rate per investigator assessment: (35.0) %
[1]; Lower tract disease, Regimen 1, 10 mg intermittent
  Objective response rate per investigator assessment: (9) %
[1]; Lower tract disease, Regimen 2, 6 mg continuous
  Objective response rate per investigator assessment: (39) %
[1]; Lower tract disease, Regimen 3, 8 mg continuous
  Objective response rate per investigator assessment: (39.5) %
[1]; Lung metastases, Regimen 1, 10 mg intermittent
  Objective response rate per investigator assessment: (27) %
[1]; Lung metastases, Regimen 2, 6 mg continuous
  Objective response rate per investigator assessment: (41) %
[1]; Lung metastases, Regimen 3, 8 mg continuous
  Objective response rate per investigator assessment: (40.4) %
[1]; Lymph node metastases only, Regimen 1, 10 mg intermittent
  Objective response rate per investigator assessment: (0) %
[1]; Lymph node metastases only, Regimen 2, 6 mg continuous
  Objective response rate per investigator assessment: (67) %
[1]; Lymph node metastases only, Regimen 3, 8 mg continuous
  Objective response rate per investigator assessment: (33.3) %
[1]; No. of lines of prior systemic therapy 0, Regimen 3, 8 mg continuous
  Objective response rate per investigator assessment: (36.4) %
[1]; No. of lines of prior systemic therapy 1, Regimen 3, 8 mg continuous
  Objective response rate per investigator assessment: (37.8) %
[1]; No. of lines of prior systemic therapy 2, Regimen 3, 8 mg continuous
  Objective response rate per investigator assessment: (37.9) %
[1]; No. of lines of prior systemic therapy 3, Regimen 3, 8 mg continuous
  Objective response rate per investigator assessment: (60.0) %
[1]; No. of lines of prior systemic therapy ≥4, Regimen 3, 8 mg continuous
  Objective response rate per investigator assessment: (50.0) %
[1]; Progressed or relapsed after chemotherapy, Regimen 1, 10 mg intermittent
  Objective response rate per investigator assessment: (21) %
[1]; Progressed or relapsed after chemotherapy, Regimen 2, 6 mg continuous
  Objective response rate per investigator assessment: (37) %
[1]; Progressed or relapsed after chemotherapy, Regimen 3, 8 mg continuous
  Objective response rate per investigator assessment: (40.2) %
[1]; Regimen 1
  Median progression-free survival per investigator assessment: 4.8 months
  Overall survival rate at 12 months: 31%
  Progression-free survival rate at 12 months: 18%
[1]; [7]
  Complete response per investigator assessment: 1 no.
  Median time to response: 1.4 mo
[1]; Regimen 1, median follow-up 22.9 months
  Median overall survival: 7.5 months
[1]; Regimen 2
  Median progression-free survival per investigator assessment: 5.3 months
  Overall survival rate at 12 months: 33%
  Progression-free survival rate at 12 months: 11%
[1]; [8]
  Complete response per investigator assessment: 3 no.
  Median time to response: 1.4 mo
[1]; Regimen 2, median follow-up 18.5 months
  Median overall survival: 8.6 months
[1]; Regimen 3
  Responses maintained for >12 months: roughly 30%
  Survival rate at 12 months: 55%
[1]; Regimen 3, 8 mg continuous (n = 99)
  Median time to response: 1.4 mo
[1]; Regimen 3, 8 mg per day continuous (FIG. 5A)
  Median progression-free survival: 5.5 months
[1]; Regimen 3, 8 mg per day continuous (FIG. 5B)
  Median overall survival: 13.8 months
[1]; Regimen 3, FGFR3-TACC3 V1 fusion (n=11)
  Patients who responded: 36.4%
[1]; Regimen 3, among 39 patients with stable disease
  Disease stabilization lasting >6 months: 33%
[1]; Regimen 3, patients with FGFR mutations (n=74)
  Additional patients with stable disease: 26 patients
[1]; Regimen 3, per investigator assessment
  Progression-free survival rate at 12 months: 19%
[1]; [9]
  Patients with maximum tumor reduction between 30% and 100%: 49%
  Patients with reduction in sum of target lesion diameters: 77%
[1]; Upper tract disease, Regimen 1, 10 mg intermittent
  Objective response rate per investigator assessment: (46) %
[1]; Upper tract disease, Regimen 2, 6 mg continuous
  Objective response rate per investigator assessment: (23) %
[1]; Upper tract disease, Regimen 3, 8 mg continuous
  Objective response rate per investigator assessment: (43.5) %
[1]; With FGFR2/3 fusions, Regimen 1, 10 mg intermittent
  Objective response rate per investigator assessment: (0) %
[1]; With FGFR2/3 fusions, Regimen 2, 6 mg continuous
  Objective response rate per investigator assessment: (17) %
[1]; With FGFR3 mutations, Regimen 1, 10 mg intermittent
  Objective response rate per investigator assessment: (22) %
[1]; With FGFR3 mutations, Regimen 2, 6 mg continuous
  Objective response rate per investigator assessment: (36) %
[1]; With visceral metastases, Regimen 1, 10 mg intermittent
  Objective response rate per investigator assessment: (29) %
[1]; With visceral metastases, Regimen 2, 6 mg continuous
  Objective response rate per investigator assessment: (32) %
[1]; With visceral metastases, Regimen 3, 8 mg continuous
  Objective response rate per investigator assessment: (38.5) %
[1]; Without visceral metastases, Regimen 1, 10 mg intermittent
  Objective response rate per investigator assessment: (0) %
[1]; Without visceral metastases, Regimen 2, 6 mg continuous
  Objective response rate per investigator assessment: (42) %
[1]; Without visceral metastases, Regimen 3, 8 mg continuous
  Objective response rate per investigator assessment: (47.6) %
Serum phosphate
  Effect on serum phosphate level: increased serum phosphate level
[2]
  Effect of food on erdafitinib pharmacokinetics: No clinically meaningful differences
In vitro
  fraction unbound: 0.002
[3]
  Trends in pharmacokinetics in specific populations: No clinically meaningful trends
[4]
  Circulating metabolites in plasma: no circulating metabolites
  Exposure (Cmax and AUC) versus dose: increased proportionally
  Mean total apparent clearance (CL/F): 0.362 L/h
  Time to steady state: 2 weeks
clinical
  Vd: 29 L
  half-life: 59 h
[5]
  Effect on the QTc interval: no large effect
